Data as given in publication PMC7318243, “Computationally Empowered Workflow Identifies Novel Covalent Allosteric Binders for KRAS^G12C” (Chemmedchem, 2020).

Tests used:
[1] = molecular target: T1, KRAS^G12C (recombinant KRAS mutant G12C, C51S, C80L, C118S) (Homo sapiens, UniProt P01116, C118S/C51S/C80L/G12C); assay: Covalent binding assay by mass spectrometry (intact mass, % covalent adduct); details: for MS assay [% binding] (KRAS^G12C bound fraction): 25 µM protein, 25 µM compound, room temperature, 2 h
T1 construct: made in house
Protocol: (§1) One of the most synthetically accessible compounds, 1,6‐naphthyridin‐5(6H)‐one (1), was prepared (Table 1; Scheme S1). Structurally close to 1, isoquinolin‐1(2H)‐one 2 derivatives were also considered for the exploration of structure‐activity relationships (SAR). To measure the proportion of inhibitor reacting with Cys12 of the KRAS^G12C mutant, the bound/unbound protein ratio was quantified by mass spectrometry (MS). Then, the inhibition potency of these compounds towards KRAS^G12C was evaluated in biochemical assays measuring the activation of GDP‐bound KRAS^G12C or KRAS^WT by SOS1.19 […]
3.4 Covalent binding assay by mass spectrometry
The percentage of covalent adduct formation at KRAS G12C was determined by intact mass determination. To this end, 25 µM recombinant KRAS mutant (G12C , C51S, C80L, C118S) was incubated with 25 µM compound (1% v/v DMSO final concentration) in 50 mM Tris, pH 8.0, 50 mM NaCl at room temperature for 2 h. Reaction mixture (20 µL) was acidified by addi tion of 4% v/v TFA (4 µL). LC-MS analysis was performed using a Waters SYNAPT G2 -S quadrupole time -of-flight mass spectrometer connected to a Waters nanoA CQUITY UPLC system. Samples were loaded onto a 2.1 × 5 mm MassPrep C4 guard column (Waters) and desalted with a short gradient (3 min) of increasing concentration of acetonitrile at a flow rate of 100 µL/min. Spectra were analyzed by using MassLynx v4.1 software and deconvoluted with the MaxEnt1 algorithm. Percent conversion was determined by the ratio of signal intensities of […] and KRASG12C + inhibitor. […]

KRAS^G12C = molecular target: T2, KRAS^G12C (Homo sapiens, UniProt P01116, G12C); assay: Biochemical assay: KRAS^G12C activation by SOS1CAT (HTRF, fluorescent GTP loading); details: for IC50: 180 min pre-incubation with KRAS before addition of SOS1
T2 construct: KRASG12C (aa 1–169, G12C) were produced for the biochemical assay; made in house
Protocol: as §1
(§2) 3.3 Biochemical activity assays
(§3) Measurement of (i) KRASG12C activation by SOS1CAT and (ii) wild-type KRAS activation by SOS1CAT was performed following the previously described protocol, [19] with a pre-incubation time of the test compound with KRAS proteins extended to 180 min before addi tion of SOS1.
(§4) This assay quantifies SOS1 CAT mediated loading of KRAS G12C–GDP with a fluorescent GTP analogue. Detection of successful loading was achieved by measuring resonance energy transfer from anti-GST-terbium (FRET donor) bound to GST -KRASG12C to the loaded fluorescent GTP analogue (FRET acceptor). The fluorescent GTP analogue EDA –GTP–DY-647P1 [2'/3'-O-(2-aminoethyl-carbamoyl)guanosine-5'-triphosphate labelled with DY-647P1 (Dyomics GmbH, Germany)] was synthesized by Jena Bioscience (Germany) a nd supplied as a 1 mM aqueous solution. A KRASG12C working solution was prepared in assay buffer [10 mM HEPES pH 7.4 (AppliChem), 150 mM NaCl (Sigma), 5 mM MgCl2 (Sigma), 1 mM DTT (Thermo Fisher), 0.05% BSA Fraction V pH 7.0 (ICN Biomedicals), 0.0025% (v/v) Igepal (Sigma)] containing 100 nM GST-KRASG12C and 2 nM anti-GST-terbium (Cisbio, France). A SOS1 CAT working solution was prepared in an assay buffer containing 20 nM SOS1CAT and 200 nM EDA–GTP–DY-647P1. An inhibitor control solution was prepared in an assay buffer containing 200 nM EDA–GTP–DY-647P1 without […]
SOS1CAT. All steps of the assay were performed at 20 °C. A volume of 2.5 µL of the KRASG12C working solution was added to all wells of the test plate using a Multidrop dispenser (Thermo LabSystems). After 180 min, 2.5 µL of the SOS1CAT working solution was added to all wells, except for the inhibitor control solution wells. After 30 min incubation, HTRF was measured. […]
(§5) SYNAPT G2-S quadrupole time-of-flight mass spectrometer connected to a Waters nanoAcquity UPLC system. Samples were loaded on a 2.1 x 5 mm mass prep C4 guard column (Waters) and desalted with a short grad ient (3 min) of increasing concentrations of acetonitrile at a flow rate of 100 µL/min. Spectra were analyzed by using MassLynx v4.1 software and deconvoluted with the MaxEnt1 algorithm. Percent of conversion was determined by the ratio of signal intensiti es of apo-KRAS and KRAS + inhibitor.

KRAS^WT = molecular target: T3, KRAS^WT (Homo sapiens, UniProt P01116); assay: Biochemical assay: KRAS^WT activation by SOS1CAT (HTRF, fluorescent GTP loading); details: 180 min pre-incubation with KRAS before addition of SOS1
T3 construct: The proteins KRASWT (aa 1–169, wild type), SOS1CAT (aa 564–); made in house
Protocol: as §1, §2, §3, §4
SOS1CAT. All steps of the assay were performed at 20 °C. A volume of 2.5 µL of the KRASG12C working solution was added to all wells of the test plate using a Multidrop dispenser (Thermo LabSystems). After 180 min, 2.5 µL of the SOS1CAT working solution was added to all wells, except for the inhibitor control solution wells. After 30 min incubation, HTRF was measured.
In the KRASWT activation by SOS1cat assay, human SOS1CAT mediated loading of GST-KRASWT– GDP was quantified with a fluorescent GTP analogue. The assay was performed as described above for the KRASG12C activation. […]
as §5

## C=CC(=O)N1CCC(c2cc3ccc(-c4ccc(F)cc4F)cc3c(=O)[nH]2)C1 (stereo not drawn) [Compound 3, 7-(2,4-Difluorophenyl)-3-[1-(prop-2-enoyl)pyrrolidin-3-yl]isoquinolin-1(2H)-one]
[1]
  MS assay [% binding] (KRAS^G12C bound fraction): 34%
KRAS^G12C
  IC50: 5 µM
KRAS^WT
  IC50: > 20 µM

## C=CC(=O)N1CCC(c2cc3ccc(-c4cc(F)cc(F)c4)cc3c(=O)[nH]2)C1 (stereo not drawn) [Compound 4, 7-(3,5-Difluorophenyl)-3-[1-(prop-2-enoyl)pyrrolidin-3-yl]isoquinolin-1(2H)-one]
[1]
  MS assay [% binding] (KRAS^G12C bound fraction): 0%
KRAS^G12C
  IC50: > 20 µM
KRAS^WT
  IC50: > 20 µM

## C=CC(=O)N1CCC(c2cc3ccc(-c4ccccc4CC)cc3c(=O)[nH]2)C1 (stereo not drawn) [Compound 5, 7-(2-Ethylphenyl)-3-[1-(prop-2-enoyl)pyrrolidin-3-yl]isoquinolin-1(2H)-one]
[1]
  MS assay [% binding] (KRAS^G12C bound fraction): 60%
KRAS^G12C
  IC50: 8 µM
KRAS^WT
  IC50: > 20 µM

## C=CC(=O)N1CCC(c2cc3ccc(-c4cccc5ncccc45)cc3c(=O)[nH]2)C1 (stereo not drawn) [Compound 6, 3-[1-(Prop-2-enoyl)pyrrolidin-3-yl]-7-(quinolin-5-yl)isoquinolin-1(2H)-one]
[1]
  MS assay [% binding] (KRAS^G12C bound fraction): 20%
KRAS^G12C
  IC50: > 16 µM
KRAS^WT
  IC50: > 20 µM

## C=CC(=O)N1CCC(c2cc3cc(Cl)c(-c4c(O)cccc4F)cc3c(=O)[nH]2)C1 (stereo not drawn) [Compound 7, 6-Chloro-7-(2-fluoro-6-hydroxyphenyl)-3-[1-(prop-2-enoyl)pyrrolidin-3-yl]isoquinolin-1(2H)-one]
[1]
  MS assay [% binding] (KRAS^G12C bound fraction): 51%
KRAS^G12C
  IC50: 14.6 µM
KRAS^WT
  IC50: > 20 µM

## C=CC(=O)N1CCC(c2cc3ccc(-c4c(O)cccc4F)cc3c(=O)[nH]2)CC1 [Compound 8]
[1]
  MS assay [% binding] (KRAS^G12C bound fraction): 0%
KRAS^G12C
  KRAS^G12C activity, in words: inactive
  IC50: > 20 µM
KRAS^WT
  IC50: > 20 µM

## C=CC(=O)N1CCCC(c2cc3ccc(-c4c(O)cccc4F)cc3c(=O)[nH]2)C1 (stereo not drawn) [Compound 9]
[1]
  MS assay [% binding] (KRAS^G12C bound fraction): 0%
KRAS^G12C
  KRAS^G12C activity, in words: inactive
  IC50: > 20 µM
KRAS^WT
  IC50: > 20 µM

## C=CC(=O)N1CCC(c2cc3ccc(-c4c(O)cccc4F)cc3c(=O)n2C)C1 (stereo not drawn) [Compound 10]
[1]
  Ability to bind / react with Cys12 of KRAS^G12C, in words: inability to bind KRAS^G12C
  MS assay [% binding] (KRAS^G12C bound fraction): 11%
KRAS^G12C
  KRAS^G12C activity, in words: inactive
  IC50: > 20 µM
KRAS^WT
  IC50: > 20 µM

## C=CC(=O)N1CCC(c2nc3ccc(-c4c(O)cccc4F)cc3c(=O)[nH]2)C1 (stereo not drawn) [Compound 11, 6-(2-Fluoro-6-hydroxyphenyl)-2-[1-(prop-2-enoyl)pyrrolidin-3-yl]quinazolin-4(3H)-one]
[1]
  MS assay [% binding] (KRAS^G12C bound fraction): 59%
KRAS^G12C
  IC50: 4.9 µM
KRAS^WT
  IC50: > 20 µM

## C=CC(=O)N1CCC(c2cc3cc(O)c(-c4ncccc4F)cc3c(=O)[nH]2)C1 (stereo not drawn) [Compound 12]
[1]
  Ability to bind / react with Cys12 of KRAS^G12C, in words: unable to react with Cys12 of KRAS^G12C
  MS assay [% binding] (KRAS^G12C bound fraction): 0%
